*1 amine or outer side, *2 acyl side, *3 side chain or, on linkers, in order; H or OH if unused. Where a SMILES comes first, the peptide text is derived from it. Bridges are numbered along the chain shown (N, C = ends). [ ]: non-standard residue; d: D form. The star is where a group is joined. X1 = CC(C)(CC(=O)[*:1])S[*:2]; NH(CH2)4NH2 = NCCCCN*; Mpa = O=C(O)CCS
What was measured:
[1] = molecular target: T1, V2 -vasopressin receptors (Sus scrofa, UniProt P32307); test: V2-vasopressin receptor binding, inhibition of 3H-LVP binding, medullary pig kidney tissue
T1 construct: Medullary pig kidney tissue; from tissue; host or cells: medullary pig (hog) kidney tissue
Description: (§1) Antagonistic activity at the V1 -vasopressin receptors is determined in a protocol which measures the reversal of the vasopressin-induced contraction of rat thoracic aorta tissue. This is expressed as KB (nM) in the table below. Such anti-pressor activity is confirmed in a similar in vitro protocol using binding to the plasma membranes of rat liver. V2 -vasopressin antagonism is determined as receptor binding ability measured by inhibition of 3H-LVP binding (KB as nM), by inhibition of adenylate cyclase activation by vasopressin in the medullary tissue of hog kidneys (Ki as nM) or in vivo in the hydropenic rat protocol (ED300 μg/kg. These procedures are described in the literature: F. Stassen et al., J. Pharmacology and Experimental Therapeutics, 223 50 (1982); F. Stassen et al., lst International Conference on Diuretics, Miami, Fla., Mar. (1984). Antagonistic activity at oxytocin receptors is determined in the isolated rat uterus protocol: W. Sawyer, et al., Endocrinology 106 81 (1979); P. Melin, et al., J. of Endocrinology 88 173 (1981).
^a Medullary pig kidney tissue, […]

[2] = molecular target: T2, V1 -vasopressin receptors (Rattus norvegicus, UniProt P30560); test: Reversal of vasopressin-induced contraction of rat thoracic aorta tissue; format: cell-based; details: rat aortic ring tissue
T2 construct: Rat liver membrane; from tissue; host or cells: rat liver plasma membranes
Description: as §1
^c Rat aortic ring tissue, […]

oxytocin receptors = molecular target: T3, oxytocin receptors (Rattus norvegicus, UniProt P70536); test: Isolated rat uterus protocol, oxytocin antagonism; format: cell-based; details: read-out: Rat OXT KB
T3 construct: Rat uterus; from tissue; host or cells: isolated rat uterus
T3 sequence (P70536 1-388): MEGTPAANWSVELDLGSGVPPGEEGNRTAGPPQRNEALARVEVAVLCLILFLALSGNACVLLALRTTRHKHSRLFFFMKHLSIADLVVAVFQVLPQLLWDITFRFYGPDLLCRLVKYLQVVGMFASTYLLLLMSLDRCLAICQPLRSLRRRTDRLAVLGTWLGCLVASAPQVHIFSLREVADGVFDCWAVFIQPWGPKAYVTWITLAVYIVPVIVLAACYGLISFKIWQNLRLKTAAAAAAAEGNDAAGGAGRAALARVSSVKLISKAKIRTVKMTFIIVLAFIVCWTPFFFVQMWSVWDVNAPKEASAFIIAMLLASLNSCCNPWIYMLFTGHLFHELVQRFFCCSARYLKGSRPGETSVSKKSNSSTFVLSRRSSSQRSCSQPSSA
Description: as §1

T1 sequence (P32307 whole entry): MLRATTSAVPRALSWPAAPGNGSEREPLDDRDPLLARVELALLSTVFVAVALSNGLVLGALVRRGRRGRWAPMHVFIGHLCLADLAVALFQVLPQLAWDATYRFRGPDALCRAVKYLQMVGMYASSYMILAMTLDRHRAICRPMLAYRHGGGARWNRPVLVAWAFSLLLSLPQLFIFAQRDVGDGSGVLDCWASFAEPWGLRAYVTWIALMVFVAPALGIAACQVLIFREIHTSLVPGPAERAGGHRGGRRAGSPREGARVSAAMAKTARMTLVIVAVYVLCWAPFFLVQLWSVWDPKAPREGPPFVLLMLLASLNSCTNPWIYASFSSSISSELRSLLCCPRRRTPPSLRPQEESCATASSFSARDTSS
T2 sequence (P30560 whole entry): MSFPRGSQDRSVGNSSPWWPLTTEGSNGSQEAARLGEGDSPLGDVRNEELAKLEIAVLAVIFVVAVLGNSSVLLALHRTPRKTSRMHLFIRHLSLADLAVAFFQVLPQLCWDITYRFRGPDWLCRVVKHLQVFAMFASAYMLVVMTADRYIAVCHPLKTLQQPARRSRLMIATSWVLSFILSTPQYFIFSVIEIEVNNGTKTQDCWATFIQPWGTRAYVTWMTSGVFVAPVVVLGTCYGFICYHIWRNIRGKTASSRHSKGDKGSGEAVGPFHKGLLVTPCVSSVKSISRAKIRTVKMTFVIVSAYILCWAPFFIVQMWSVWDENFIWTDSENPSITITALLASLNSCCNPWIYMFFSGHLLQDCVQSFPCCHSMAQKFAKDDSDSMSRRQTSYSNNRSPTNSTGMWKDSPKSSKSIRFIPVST

| Kb [1] [nM] | Kb [2] [nM] | Kb (oxytocin receptors) [nM] | SMILES |
| --- | --- | --- | --- |
| 8600 | 1.21 | 5.91 | COc1ccc(C[C@@H]2NC(=O)CC(C)(C)SSC[C@@H](C(=O)N3CCC[C@H]3C(=O)NCCCCN)NC(=O)[C@H](CC(N)=O)NC(=O)[C@H](CCC(N)=O)NC(=O)[C@H](Cc3ccccc3)NC2=O)cc1 [A] (Y(Me)FQNCP-{NH(CH2)4NH2}; linker N-5 via X1) |
| 5700 | – | 1.6 | CCOc1ccc(C[C@H]2NC(=O)CCSSC[C@@H](C(=O)N3CCC[C@H]3C(=O)NCCCCN)NC(=O)[C@H](CC(N)=O)NC(=O)[C@H]([C@@H](C)O)NC(=O)[C@H]([C@@H](C)CC)NC2=O)cc1 [C] ([Mpa][dY](Et)ITNCP-{NH(CH2)4NH2}; disulfide 1-6) |
| 4100 | – | 17.7 | CCOc1ccc(C[C@@H]2NC(=O)CCSSC[C@@H](C(=O)N[C@@H](CCCNC(=N)N)C(=O)NCC(N)=O)NC(=O)[C@H](CC(N)=O)NC(=O)[C@H]([C@@H](C)O)NC(=O)[C@H]([C@@H](C)CC)NC2=O)cc1 [D] ([Mpa]Y(Et)ITNCRG-NH2; disulfide 1-6) |
| 1600 | – | 11.4 | CCOc1ccc(C[C@@H]2NC(=O)CCSSC[C@@H](C(=O)N[C@@H](CCCNC(=N)N)C(N)=O)NC(=O)[C@H](CC(N)=O)NC(=O)[C@H]([C@@H](C)O)NC(=O)[C@H]([C@@H](C)CC)NC2=O)cc1 [E] ([Mpa]Y(Et)ITNCR-NH2; disulfide 1-6) |

— US4604378A, “Basic V1 -vasopressin antagonists” (SmithKline Beckman Corporation, priority 1984, dated 1986)
